Results taken from ChEMBL document CHEMBL6134788, “Development of naphthalimide hydrazide derivatives as potent antibacterial agents against carbapenem-resistant A. baumannii” (RSC Med Chem, 2024).
In brackets after ≈: the same amount, converted by molar mass. Positions of bridges follow the written chain, without caps; N, C: chain ends. Non-standard residues stand in square brackets, D forms with d. Residues, ends and D or L forms follow the SMILES beside them. *: point of attachment. X1 = CC[C@H](C)CCCCC(=O)*; Dab = NCC[C@H](N)C(=O)O

Columns and labels:
Staphylococcus aureus [1] = assay: Antibacterial activity against Staphylococcus aureus; type: functional
Acinetobacter baumannii [2] = assay: Antibacterial activity against carbapenem-resistant Acinetobacter baumannii BAA 1605 assessed as inhibition of bacterial growth incubated for 16 to 18 hrs by CLSI protocol based method; type: functional; details: time 16-18 hrs
Acinetobacter baumannii [3] = assay: Antibacterial activity against multi-drug resistant Acinetobacter baumannii H72721 assessed as inhibition of bacterial growth incubated for 16 to 18 hrs by CLSI protocol based method; type: functional; details: time 16-18 hrs, read-out: MIC100
Acinetobacter baumannii [4] = assay: Antibacterial activity against multi-drug resistant Acinetobacter baumannii clinical isolate 1 assessed as inhibition of bacterial growth incubated for 16 to 18 hrs by CLSI protocol based method; type: functional; details: time 16-18 hrs, read-out: MIC100
Acinetobacter baumannii [5] = assay: Antibacterial activity against multi-drug resistant Acinetobacter baumannii clinical isolate 2 assessed as inhibition of bacterial growth incubated for 16 to 18 hrs by CLSI protocol based method; type: functional; details: time 16-18 hrs, read-out: MIC100
Acinetobacter baumannii [6] = assay: Antibacterial activity against multi-drug resistant Acinetobacter baumannii clinical isolate 3 assessed as inhibition of bacterial growth incubated for 16 to 18 hrs by CLSI protocol based method; type: functional; details: time 16-18 hrs, read-out: MIC100
Acinetobacter baumannii [7] = assay: Antibacterial activity against multi-drug resistant Acinetobacter baumannii clinical isolate 4 assessed as inhibition of bacterial growth incubated for 16 to 18 hrs by CLSI protocol based method; type: functional; details: time 16-18 hrs, read-out: MIC100
Acinetobacter baumannii [8] = assay: Antibacterial activity against multi-drug resistant Acinetobacter baumannii clinical isolate 5 assessed as inhibition of bacterial growth incubated for 16 to 18 hrs by CLSI protocol based method; type: functional; details: time 16-18 hrs, read-out: MIC100
Acinetobacter baumannii [9] = assay: Antibacterial activity against multi-drug resistant Acinetobacter baumannii clinical isolate 6 assessed as inhibition of bacterial growth incubated for 16 to 18 hrs by CLSI protocol based method; type: functional; details: time 16-18 hrs, read-out: MIC100
Acinetobacter baumannii [10] = assay: Antibacterial activity against multi-drug resistant Acinetobacter baumannii clinical isolate 7 assessed as inhibition of bacterial growth incubated for 16 to 18 hrs by CLSI protocol based method; type: functional; details: time 16-18 hrs, read-out: MIC100
Acinetobacter baumannii [11] = assay: Antibacterial activity against multi-drug resistant Acinetobacter baumannii clinical isolate 8 assessed as inhibition of bacterial growth incubated for 16 to 18 hrs by CLSI protocol based method; type: functional; details: time 16-18 hrs, read-out: MIC100
Acinetobacter baumannii [12] = assay: Antibacterial activity against multi-drug resistant Acinetobacter baumannii clinical isolate 9 assessed as inhibition of bacterial growth incubated for 16 to 18 hrs by CLSI protocol based method; type: functional; details: time 16-18 hrs, read-out: MIC100
Acinetobacter baumannii [13] = assay: Antibacterial activity against multi-drug resistant Acinetobacter baumannii clinical isolate 10 assessed as inhibition of bacterial growth incubated for 16 to 18 hrs by CLSI protocol based method; type: functional; details: time 16-18 hrs, read-out: MIC100
Acinetobacter baumannii [14] = assay: Antibacterial activity against multi-drug resistant Acinetobacter baumannii clinical isolate 11 assessed as inhibition of bacterial growth incubated for 16 to 18 hrs by CLSI protocol based method; type: functional; details: time 16-18 hrs, read-out: MIC100
Acinetobacter baumannii [15] = assay: Antibacterial activity against multi-drug resistant Acinetobacter baumannii clinical isolate 12 assessed as inhibition of bacterial growth incubated for 16 to 18 hrs by CLSI protocol based method; type: functional; details: time 16-18 hrs, read-out: MIC100
Acinetobacter baumannii [16] = assay: Antibacterial activity against multi-drug resistant Acinetobacter baumannii NR-17777 assessed as inhibition of bacterial growth incubated for 16 to 18 hrs by CLSI protocol based method; type: functional; details: time 16-18 hrs, read-out: MIC100
Acinetobacter baumannii [17] = assay: Antibacterial activity against multi-drug resistant Acinetobacter baumannii 5-032 assessed as inhibition of bacterial growth incubated for 16 to 18 hrs by CLSI protocol based method; type: functional; details: time 16-18 hrs, read-out: MIC100
Acinetobacter baumannii [18] = assay: Antibacterial activity against multi-drug resistant Acinetobacter baumannii 5-109 assessed as inhibition of bacterial growth incubated for 16 to 18 hrs by CLSI protocol based method; type: functional; details: time 16-18 hrs, read-out: MIC100
Acinetobacter baumannii [19] = assay: Antibacterial activity against multi-drug resistant Acinetobacter baumannii 5-143 assessed as inhibition of bacterial growth incubated for 16 to 18 hrs by CLSI protocol based method; type: functional; details: time 16-18 hrs, read-out: MIC100
Acinetobacter baumannii [20] = assay: Antibacterial activity against multi-drug resistant Acinetobacter baumannii 5-189 assessed as inhibition of bacterial growth incubated for 16 to 18 hrs by CLSI protocol based method; type: functional; details: time 16-18 hrs, read-out: MIC100
Acinetobacter baumannii [21] = assay: Antibacterial activity against multi-drug resistant Acinetobacter baumannii BC-5 assessed as inhibition of bacterial growth incubated for 16 to 18 hrs by CLSI protocol based method; type: functional; details: time 16-18 hrs, read-out: MIC100
Acinetobacter baumannii [22] = assay: Antibacterial activity against multi-drug resistant Acinetobacter baumannii Naval-17 assessed as inhibition of bacterial growth incubated for 16 to 18 hrs by CLSI protocol based method; type: functional; details: time 16-18 hrs, read-out: MIC100
Acinetobacter baumannii [23] = assay: Antibacterial activity against multi-drug resistant Acinetobacter baumannii Naval-18 assessed as inhibition of bacterial growth incubated for 16 to 18 hrs by CLSI protocol based method; type: functional; details: time 16-18 hrs, read-out: MIC100
Acinetobacter baumannii [24] = assay: Antibacterial activity against multi-drug resistant Acinetobacter baumannii Naval-81 assessed as inhibition of bacterial growth incubated for 16 to 18 hrs by CLSI protocol based method; type: functional; details: time 16-18 hrs, read-out: MIC100
Acinetobacter baumannii [25] = assay: Antibacterial activity against multi-drug resistant Acinetobacter baumannii WL-136 assessed as inhibition of bacterial growth incubated for 16 to 18 hrs by CLSI protocol based method; type: functional; details: time 16-18 hrs, read-out: MIC100
Acinetobacter baumannii [26] = assay: Antibacterial activity against multi-drug resistant Acinetobacter baumannii WL-487 assessed as inhibition of bacterial growth incubated for 16 to 18 hrs by CLSI protocol based method; type: functional; details: time 16-18 hrs, read-out: MIC100
Acinetobacter baumannii [27] = assay: Antibacterial activity against Acinetobacter baumannii ATCC 17978 assessed as inhibition of bacterial growth incubated for 16 to 18 hrs by CLSI protocol based method; type: functional; details: time 16-18 hrs, read-out: MIC100
[28] = Cytotoxicity against African green monkey Vero cells assessed as reduction in cell viability incubated for 72 hrs by MTT assay; type: toxicity, cell-based; details: chlorocebus sabaeus
[29] = Selectivity index, ratio of CC50 for cytotoxicity against African green monkey VERO cells to MIC for antibacterial activity against carbapenem-resistant Acinetobacter baumannii BAA 1605 assessed as inhibition of bacterial growth; type: toxicity, cell-based; details: read-out: Selectivity Index
Acinetobacter baumannii [30] = assay: Antibacterial activity against Acinetobacter baumannii assessed as inhibition of bacterial growth by twofold serial dilution method; type: functional
Staphylococcus aureus [31] = assay: Antibacterial activity against Staphylococcus aureus ATCC 29213 assessed as inhibition of bacterial growth incubated for 16 to 18 hrs by CLSI protocol based method; type: functional; details: time 16-18 hrs, read-out: MIC100

SMILES | MIC (Acinetobacter baumannii [2]; read-out: MIC100) [mg/L] | MIC (Acinetobacter baumannii [3]) [mg/L] | MIC (Acinetobacter baumannii [4]) [mg/L] | MIC (Acinetobacter baumannii [5]) [mg/L] | MIC (Acinetobacter baumannii [6]) [mg/L] | MIC (Acinetobacter baumannii [7]) [mg/L] | MIC (Acinetobacter baumannii [8]) [mg/L] | MIC (Acinetobacter baumannii [9]) [mg/L] | MIC (Acinetobacter baumannii [11]) [mg/L] | MIC (Acinetobacter baumannii [12]) [mg/L] | MIC (Acinetobacter baumannii [13]) [mg/L] | MIC (Acinetobacter baumannii [14]) [mg/L] | MIC (Acinetobacter baumannii [15]) [mg/L] | MIC (Acinetobacter baumannii [17]) [mg/L] | MIC (Acinetobacter baumannii [19]) [mg/L] | MIC (Acinetobacter baumannii [22]) [mg/L] | MIC (Acinetobacter baumannii [23]) [mg/L] | MIC (Acinetobacter baumannii [25]) [mg/L] | MIC (Acinetobacter baumannii [26]) [mg/L] | MIC (Acinetobacter baumannii [27]) [mg/L] | other results
Cc1ccc2cc(C(=O)N3CCN(CCN4C(=O)c5cccc6cccc(c56)C4=O)CC3)c(=O)oc2c1 | – | – | – | – | – | – | – | – | – | – | – | – | – | – | – | – | – | – | – | – | MIC (Staphylococcus aureus [1]): 0.5 mg/L (≈ 1.01 µM)
CC(C)CCCCC(=O)N[C@@H](CCN)C(=O)N[C@H](C(=O)N[C@@H](CCN)C(=O)N[C@H]1CCNC(=O)[C@H]([C@@H](C)O)NC(=O)[C@H](CCN)NC(=O)[C@H](CCN)NC(=O)[C@H](CC(C)C)NC(=O)[C@@H](Cc2ccccc2)NC(=O)[C@H](CCN)NC1=O)[C@@H](C)O.CC[C@H](C)CCCCC(=O)N[C@@H](CCN)C(=O)N[C@H](C(=O)N[C@@H](CCN)C(=O)N[C@H]1CCNC(=O)[C@H]([C@@H](C)O)NC(=O)[C@H](CCN)NC(=O)[C@H](CCN)NC(=O)[C@H](CC(C)C)NC(=O)[C@@H](Cc2ccccc2)NC(=O)[C@H](CCN)NC1=O)[C@@H](C)O (X1-[Dab]T[Dab][Dab][Dab][dF]L[Dab][Dab]T; lactam 4-C) | 0.25 | 0.25 | 0.25 | 0.25 | 0.25 | 0.25 | 0.25 | 0.25 | 0.5 | 0.5 | 0.25 | 0.25 | 0.25 | 0.125 | 0.25 | 0.25 | 0.25 | 0.25 | 0.5 | 0.25 | MIC (Acinetobacter baumannii [10]): 0.5 mg/L; MIC (Acinetobacter baumannii [16]): 0.25 mg/L; MIC (Acinetobacter baumannii [18]): 0.25 mg/L; MIC (Acinetobacter baumannii [20]): 0.25 mg/L; MIC (Acinetobacter baumannii [21]): 0.25 mg/L; MIC (Acinetobacter baumannii [24]): 0.125 mg/L
COc1cccc2c1C(=O)c1c(O)c3c(c(O)c1C2=O)C[C@@](O)(C(=O)CO)C[C@@H]3O[C@H]1C[C@H](N)[C@H](O)[C@H](C)O1 [DOXORUBICIN] | – | – | – | – | – | – | – | – | – | – | – | – | – | – | – | – | – | – | – | – | MIC (Acinetobacter baumannii [2]; read-out: MIC): > 64 mg/L; CC50 at 72 h [28]: < 10 mg/L; selectivity ratio [29]: < 1
CCCCCCCCCCN1CCN(c2ccc3c4c(cccc24)C(=O)N(CC(O)Cn2c([N+](=O)[O-])cnc2C)C3=O)CC1 (configuration not stated) | – | – | – | – | – | – | – | – | – | – | – | – | – | – | – | – | – | – | – | – | MIC (Acinetobacter baumannii [30]): 13 µM (≈ 7.86 µg/mL)
C[C@H]1COc2c(N3CCN(C)CC3)c(F)cc3c(=O)c(C(=O)O)cn1c23 [LEVOFLOXACIN ANHYDROUS] | 4 (≈ 11.1 µM) | – | 32 (≈ 88.6 µM) | > 64 | 64 (≈ 177 µM) | > 64 | – | 4 (≈ 11.1 µM) | 4 (≈ 11.1 µM) | 4 (≈ 11.1 µM) | > 64 | 64 (≈ 177 µM) | 4 (≈ 11.1 µM) | 0.25 (≈ 0.692 µM) | 1 (≈ 2.77 µM) | 16 (≈ 44.3 µM) | 4 (≈ 11.1 µM) | 0.25 (≈ 0.692 µM) | 0.125 (≈ 0.346 µM) | 0.03 (≈ 0.083 µM) | MIC (Staphylococcus aureus [31]): 0.25 mg/L (≈ 0.692 µM); CC50 at 72 h [28]: > 400 mg/L
C[C@@H](O)[C@H]1C(=O)N2C(C(=O)O)=C(S[C@@H]3CN[C@H](C(=O)N(C)C)C3)[C@H](C)[C@H]12 [MEROPENEM] | 16 (≈ 41.7 µM) | 32 (≈ 83.4 µM) | 16 (≈ 41.7 µM) | 32 (≈ 83.4 µM) | 16 (≈ 41.7 µM) | 32 (≈ 83.4 µM) | > 64 | > 64 | 64 (≈ 167 µM) | > 64 | 16 (≈ 41.7 µM) | 64 (≈ 167 µM) | > 64 | 4 (≈ 10.4 µM) | 8 (≈ 20.9 µM) | 4 (≈ 10.4 µM) | 64 (≈ 167 µM) | 2 (≈ 5.22 µM) | 1 (≈ 2.61 µM) | 0.5 (≈ 1.3 µM) | MIC (Acinetobacter baumannii [10]): 2 mg/L (≈ 5.22 µM); MIC (Acinetobacter baumannii [16]): 4 mg/L (≈ 10.4 µM); MIC (Acinetobacter baumannii [18]): 4 mg/L (≈ 10.4 µM); MIC (Acinetobacter baumannii [20]): 2 mg/L (≈ 5.22 µM); MIC (Acinetobacter baumannii [21]): > 64 mg/L; MIC (Acinetobacter baumannii [24]): 4 mg/L (≈ 10.4 µM)
